Source: ChEMBL document CHEMBL1201862, “PubChem BioAssay data set” (2004)
Structures can show the parent of a compound that is named as a salt. The source made the active and inactive calls.

Columns and labels:
[1] = CellTiter-Glo luminescent dose response of DLD-1 viability loss (AID 1117352); assay type: functional
[2] = SNU-C1 cell viability reduction, dose response, CellTiter-Glo luminescence (AID 1117323); assay type: functional, cell-based
[3] = cytotoxicity toward Colo320 cells – cell-based, CellTiter-Glo luminescence, IC50, dose response (AID 1117334); assay type: functional; details: COLO 320
[4] = RKO cell viability reduction, dose response, CellTiter-Glo luminescence (AID 1117322); assay type: functional
[5] = cytotoxicity toward HCT116 cells – cell-based, CellTiter-Glo luminescence, IC50, dose response (AID 1117332); assay type: functional; details: HCT-116
[6] = Concentration-dependent survival of SW480 colon cancer line, luminescence detection with CellTiter-Glo, half-maximal inhibitory concentration (AID 1117338); assay type: functional
[7] = target: Aryl hydrocarbon receptor (Homo sapiens, UniProt P35869); details: Potency;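 note: confirmatory quantitative high-throughput screen measuring activation of the AhR signaling pathway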
[8] = cytotoxicity toward HT-29 cells – cell-based, CellTiter-Glo luminescence, IC50, dose response (AID 1117330); assay type: functional
[9] = HCT116 cell viability decrease, GSK3B pretreatment – CellTiter-Glo, IC50, dose response (AID 1117339); assay type: functional; details: HCT-116
[10] = target: T1, Sentrin-specific protease 8 (Homo sapiens, UniProt Q96LD8); assay type: functional
T1 sequence (Q96LD8 whole entry): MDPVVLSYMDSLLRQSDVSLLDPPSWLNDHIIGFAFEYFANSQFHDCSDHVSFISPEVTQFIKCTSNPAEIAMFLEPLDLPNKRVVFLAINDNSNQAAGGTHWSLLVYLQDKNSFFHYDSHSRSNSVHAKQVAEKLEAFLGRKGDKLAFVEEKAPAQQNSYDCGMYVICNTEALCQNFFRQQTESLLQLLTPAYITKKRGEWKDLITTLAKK

[11] = target: Tyrosyl-DNA phosphodiesterase 2 (Homo sapiens, UniProt O95551); assay: human TDP2 enzyme inhibitors, dose response, biochemical, epi absorbance, IC50 (AID 743297)
[12] = target: Glutathione-S-transferase (Schistosoma japonicum, UniProt Q26513); assay: biotin-GST/anti-GST TR-FRET signal inhibitors, dose response, artefact control for Vif-APOBEC3G degradation inhibitor project, biochemical (AID 1117362); assay type: functional
Caspase-6 = target: T2, Caspase-6 (Homo sapiens, UniProt P55212); assay: human caspase-6 inhibitors, dose response, biochemical, VEID-R110 fluorescence, cherry-pick (AID 720632)
T2 sequence (P55212 whole entry): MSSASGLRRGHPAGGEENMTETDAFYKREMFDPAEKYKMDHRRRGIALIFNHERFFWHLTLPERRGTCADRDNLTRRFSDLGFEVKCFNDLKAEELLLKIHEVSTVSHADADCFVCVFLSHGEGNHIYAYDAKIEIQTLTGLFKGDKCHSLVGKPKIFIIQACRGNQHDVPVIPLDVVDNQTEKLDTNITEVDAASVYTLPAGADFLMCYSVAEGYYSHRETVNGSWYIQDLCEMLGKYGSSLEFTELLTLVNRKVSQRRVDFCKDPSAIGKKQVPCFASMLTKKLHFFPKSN

[13] = target: T3, Apoptotic protease-activating factor 1 (Homo sapiens, UniProt O14727); assay type: functional
T3 sequence (O14727 whole entry): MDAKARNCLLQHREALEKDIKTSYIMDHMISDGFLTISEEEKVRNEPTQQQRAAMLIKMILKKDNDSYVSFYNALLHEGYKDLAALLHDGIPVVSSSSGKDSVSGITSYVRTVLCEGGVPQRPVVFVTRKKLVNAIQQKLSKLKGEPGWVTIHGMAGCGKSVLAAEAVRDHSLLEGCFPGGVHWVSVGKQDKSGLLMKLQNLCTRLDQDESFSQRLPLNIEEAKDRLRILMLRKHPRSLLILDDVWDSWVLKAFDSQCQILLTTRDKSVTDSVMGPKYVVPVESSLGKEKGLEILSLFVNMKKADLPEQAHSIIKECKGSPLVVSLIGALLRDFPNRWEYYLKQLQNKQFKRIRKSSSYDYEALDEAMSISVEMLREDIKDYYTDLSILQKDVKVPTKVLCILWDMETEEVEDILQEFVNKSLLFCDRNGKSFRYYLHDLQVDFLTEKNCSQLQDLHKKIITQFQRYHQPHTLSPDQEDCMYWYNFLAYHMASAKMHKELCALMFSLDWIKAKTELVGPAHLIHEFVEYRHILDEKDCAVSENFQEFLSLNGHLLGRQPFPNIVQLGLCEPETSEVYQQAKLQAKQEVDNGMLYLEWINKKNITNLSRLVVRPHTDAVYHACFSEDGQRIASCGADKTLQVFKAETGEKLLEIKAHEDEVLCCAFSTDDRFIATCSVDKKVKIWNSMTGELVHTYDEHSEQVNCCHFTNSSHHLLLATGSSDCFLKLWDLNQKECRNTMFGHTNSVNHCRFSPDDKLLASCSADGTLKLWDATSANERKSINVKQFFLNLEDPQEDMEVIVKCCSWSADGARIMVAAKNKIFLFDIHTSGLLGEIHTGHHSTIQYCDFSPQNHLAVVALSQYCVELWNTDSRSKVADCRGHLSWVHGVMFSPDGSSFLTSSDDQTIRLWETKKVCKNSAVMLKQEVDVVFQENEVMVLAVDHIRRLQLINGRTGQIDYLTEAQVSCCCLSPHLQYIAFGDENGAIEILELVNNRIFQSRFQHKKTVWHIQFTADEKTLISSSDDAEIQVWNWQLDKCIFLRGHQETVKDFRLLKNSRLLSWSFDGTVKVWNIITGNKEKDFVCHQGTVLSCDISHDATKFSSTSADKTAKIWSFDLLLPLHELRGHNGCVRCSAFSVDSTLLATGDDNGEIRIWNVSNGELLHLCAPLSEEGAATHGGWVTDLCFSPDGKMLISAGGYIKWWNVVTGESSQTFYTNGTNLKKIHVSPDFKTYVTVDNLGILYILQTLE

[14] = target: T1, Sentrin-specific protease 8; assay type: functional; remark: listed apart in the source
SUMO-activating enzyme [15] = target: T4, SUMO-activating enzyme (Homo sapiens, UniProt Q9UBT2); assay: inhibitors of in vitro SUMOylation cascade, primary screen, biochemical, HTRF, uHTS (AID 2006); assay type: protein-complex assay
SUMO-activating enzyme [16] = target: T4, SUMO-activating enzyme; assay: SUMOylation inhibitor hit validation, confirmation, SUMOylation inhibitor project, biochemical, AlphaScreen (AID 2018); assay type: functional
[17] = target: T5, Histone-lysine N-methyltransferase NSD2 (Homo sapiens, UniProt O96028); assay type: biochemical
T5 sequence (O96028 whole entry): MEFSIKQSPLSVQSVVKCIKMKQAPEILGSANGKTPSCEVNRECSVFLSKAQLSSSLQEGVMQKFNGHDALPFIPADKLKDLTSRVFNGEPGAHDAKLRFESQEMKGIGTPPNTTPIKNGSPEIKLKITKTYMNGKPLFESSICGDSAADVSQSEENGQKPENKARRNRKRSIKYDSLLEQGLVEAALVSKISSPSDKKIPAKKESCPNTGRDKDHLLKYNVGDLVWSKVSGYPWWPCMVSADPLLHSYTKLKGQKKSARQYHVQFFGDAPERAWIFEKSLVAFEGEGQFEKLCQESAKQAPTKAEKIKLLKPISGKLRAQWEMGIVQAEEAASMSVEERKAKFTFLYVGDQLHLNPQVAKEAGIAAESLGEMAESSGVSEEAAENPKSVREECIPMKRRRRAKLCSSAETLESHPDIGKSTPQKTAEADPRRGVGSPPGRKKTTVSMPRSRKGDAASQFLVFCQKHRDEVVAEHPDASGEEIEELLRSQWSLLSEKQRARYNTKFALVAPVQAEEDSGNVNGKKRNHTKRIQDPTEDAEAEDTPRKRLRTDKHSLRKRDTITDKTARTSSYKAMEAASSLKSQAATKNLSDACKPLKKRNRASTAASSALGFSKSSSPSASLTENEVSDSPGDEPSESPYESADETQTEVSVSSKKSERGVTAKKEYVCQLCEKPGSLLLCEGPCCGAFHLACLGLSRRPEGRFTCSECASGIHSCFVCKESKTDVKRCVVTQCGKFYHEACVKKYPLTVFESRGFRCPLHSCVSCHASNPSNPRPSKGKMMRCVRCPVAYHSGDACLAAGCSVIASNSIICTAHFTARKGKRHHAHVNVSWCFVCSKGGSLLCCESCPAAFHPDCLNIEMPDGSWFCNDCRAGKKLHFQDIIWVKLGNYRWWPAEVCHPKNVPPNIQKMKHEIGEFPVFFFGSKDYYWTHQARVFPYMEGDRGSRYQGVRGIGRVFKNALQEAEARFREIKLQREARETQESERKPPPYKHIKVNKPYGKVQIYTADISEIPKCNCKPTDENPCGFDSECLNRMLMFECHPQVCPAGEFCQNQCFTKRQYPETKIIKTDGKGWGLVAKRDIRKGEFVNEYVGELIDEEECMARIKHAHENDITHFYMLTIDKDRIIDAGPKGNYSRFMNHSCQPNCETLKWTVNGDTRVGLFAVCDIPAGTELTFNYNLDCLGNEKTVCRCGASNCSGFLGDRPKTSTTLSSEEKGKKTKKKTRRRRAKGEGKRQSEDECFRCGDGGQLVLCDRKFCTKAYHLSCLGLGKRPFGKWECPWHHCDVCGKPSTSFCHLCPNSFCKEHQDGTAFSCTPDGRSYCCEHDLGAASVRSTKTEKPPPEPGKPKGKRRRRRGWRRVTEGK

[18] = inhibitors of Vif binding to APOBEC3G peptide, primary screen, biochemical, TR-FRET, GST-Vif 1-94, biotin-A3G peptide, dose response retest (AID 1117319); assay type: functional;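 note: TR-FRET signal of purified GST-Vif binding a biotinylated A3G peptide; inhibitors lower the FRET signal by blocking Vif and A3G binding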

T4 sequence (Q9UBE0 whole entry): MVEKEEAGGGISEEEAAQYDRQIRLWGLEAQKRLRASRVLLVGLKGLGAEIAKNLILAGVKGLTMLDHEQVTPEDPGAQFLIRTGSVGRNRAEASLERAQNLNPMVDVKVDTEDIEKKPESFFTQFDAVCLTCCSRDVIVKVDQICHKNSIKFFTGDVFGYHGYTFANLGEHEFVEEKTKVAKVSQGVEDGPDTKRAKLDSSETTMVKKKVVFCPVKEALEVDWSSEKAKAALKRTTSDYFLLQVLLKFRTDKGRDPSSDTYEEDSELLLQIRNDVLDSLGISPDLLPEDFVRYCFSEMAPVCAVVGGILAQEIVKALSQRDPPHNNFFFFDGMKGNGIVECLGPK
T4 sequence (Q9UBT2 whole entry): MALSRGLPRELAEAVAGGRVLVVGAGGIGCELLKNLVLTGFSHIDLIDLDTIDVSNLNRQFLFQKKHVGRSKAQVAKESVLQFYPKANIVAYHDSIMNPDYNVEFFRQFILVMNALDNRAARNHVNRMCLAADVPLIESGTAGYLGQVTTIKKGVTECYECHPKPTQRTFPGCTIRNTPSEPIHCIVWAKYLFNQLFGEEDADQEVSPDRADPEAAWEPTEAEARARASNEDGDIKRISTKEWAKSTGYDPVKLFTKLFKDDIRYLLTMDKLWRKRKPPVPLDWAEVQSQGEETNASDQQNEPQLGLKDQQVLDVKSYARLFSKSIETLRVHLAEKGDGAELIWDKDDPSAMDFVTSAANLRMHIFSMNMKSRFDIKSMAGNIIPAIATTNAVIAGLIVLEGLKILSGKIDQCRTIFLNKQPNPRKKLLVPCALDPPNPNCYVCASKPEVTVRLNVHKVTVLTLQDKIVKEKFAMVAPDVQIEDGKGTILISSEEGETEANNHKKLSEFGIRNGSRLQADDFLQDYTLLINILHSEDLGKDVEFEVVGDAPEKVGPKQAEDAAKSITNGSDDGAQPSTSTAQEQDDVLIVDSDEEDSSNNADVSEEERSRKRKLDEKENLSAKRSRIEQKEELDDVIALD
Chain of Tyrosyl-DNA phosphodiesterase 2 (O95551 whole entry): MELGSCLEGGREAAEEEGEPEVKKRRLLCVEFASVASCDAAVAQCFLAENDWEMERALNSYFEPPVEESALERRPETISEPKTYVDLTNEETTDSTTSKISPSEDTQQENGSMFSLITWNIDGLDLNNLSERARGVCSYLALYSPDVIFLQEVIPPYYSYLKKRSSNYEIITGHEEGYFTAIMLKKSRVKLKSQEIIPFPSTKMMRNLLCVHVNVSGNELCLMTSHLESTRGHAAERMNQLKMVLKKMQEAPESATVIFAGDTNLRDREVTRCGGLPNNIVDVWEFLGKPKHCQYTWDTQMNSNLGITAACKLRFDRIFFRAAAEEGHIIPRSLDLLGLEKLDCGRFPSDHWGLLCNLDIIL
Chain of Glutathione-S-transferase (Q26513 whole entry): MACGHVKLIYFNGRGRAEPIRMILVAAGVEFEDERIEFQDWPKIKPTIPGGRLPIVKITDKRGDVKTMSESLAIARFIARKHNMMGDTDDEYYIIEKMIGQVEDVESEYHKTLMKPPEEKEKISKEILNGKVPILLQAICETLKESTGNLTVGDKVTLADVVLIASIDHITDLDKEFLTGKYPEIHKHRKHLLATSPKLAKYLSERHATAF
Chain of Aryl hydrocarbon receptor (P35869 whole entry): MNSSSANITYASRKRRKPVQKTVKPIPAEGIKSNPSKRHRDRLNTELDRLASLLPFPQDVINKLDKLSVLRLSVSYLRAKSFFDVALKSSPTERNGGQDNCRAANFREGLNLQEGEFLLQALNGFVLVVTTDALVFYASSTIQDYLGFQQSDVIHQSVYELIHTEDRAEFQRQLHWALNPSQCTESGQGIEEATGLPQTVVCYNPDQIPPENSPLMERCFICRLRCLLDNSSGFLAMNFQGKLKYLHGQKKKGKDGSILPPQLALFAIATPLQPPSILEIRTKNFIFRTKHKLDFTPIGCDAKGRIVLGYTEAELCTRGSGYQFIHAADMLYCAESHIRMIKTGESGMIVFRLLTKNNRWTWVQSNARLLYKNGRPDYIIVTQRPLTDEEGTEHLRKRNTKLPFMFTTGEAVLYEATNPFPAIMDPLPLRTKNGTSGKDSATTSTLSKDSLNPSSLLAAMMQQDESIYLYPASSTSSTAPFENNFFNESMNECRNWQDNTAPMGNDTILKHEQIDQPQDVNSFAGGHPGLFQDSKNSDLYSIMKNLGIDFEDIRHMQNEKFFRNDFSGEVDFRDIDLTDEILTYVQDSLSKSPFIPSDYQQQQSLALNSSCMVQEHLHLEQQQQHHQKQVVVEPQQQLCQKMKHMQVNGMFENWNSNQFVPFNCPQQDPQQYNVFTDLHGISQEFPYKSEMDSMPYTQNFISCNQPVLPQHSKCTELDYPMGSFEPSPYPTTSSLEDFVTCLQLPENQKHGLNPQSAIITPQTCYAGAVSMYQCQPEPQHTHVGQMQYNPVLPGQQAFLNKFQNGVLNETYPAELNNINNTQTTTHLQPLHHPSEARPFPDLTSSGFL

Structure (SMILES) | IC50 [1] | IC50 [2] | IC50 [3] | IC50 [4] | IC50 [5] | IC50 [6] | AC50 [7] | IC50 [8] | IC50 [9] | IC50 [10] | IC50 [11] | IC50 [12] | AC50 (Caspase-6) | IC50 [13] | IC50 [14] | IC50 (SUMO-activating enzyme [15]) | IC50 (SUMO-activating enzyme [16]) | AC50 [17] | IC50 [18]
CN(C)c1ccc(C(=C2C=CC(=[N+](C)C)C=C2)c2ccccc2)cc1 | 0.0218 µM (active) | 0.0354 µM (active) | 0.161 µM (active) | 0.118 µM (active) | 0.0179 µM (active) | 0.00922 µM (active) | 7.94 µM (inconclusive) | 0.00982 µM (active) | 0.00983 µM (active) | – | – | – | – | – | – | – | – | – | –
CN(C)c1cc(Cl)c2nonc2c1N | – | – | – | – | – | – | – | – | – | 8.12 µM (active) | 9.9 µM (active) | > 100 µM (active) | 12.6 µM (active) | 16.8 µM (active) | 6.83 µM (active) | 16.2 µM (active) | 2.7 µM (active) | 4.43 µM (active) | –
O=C(O)c1[nH]c2ccc(Cl)cc2c1CC(=O)N1CCN(C(=O)c2ccco2)CC1 | – | – | – | – | – | – | – | – | – | – | – | – | – | – | – | – | – | – | > 100 µM (active)
NC1=NCC2c3ccccc3Cc3ccccc3N12 (configuration not stated) [EPINASTINE HYDROCHLORIDE] | > 20 µM (inactive) | > 20 µM (inactive) | > 20 µM (inactive) | > 20 µM (inactive) | > 20 µM (inactive) | > 20 µM (inactive) | – | > 20 µM (inactive) | > 20 µM (inactive) | – | – | – | – | – | – | – | – | – | –
